Measured values from patent US10195156B2, “Compounds and compositions for intracellular delivery of agents” (ModernaTX, Inc., priority 2015, dated 2019).

How the values were obtained:
[1] = Particle size and polydispersity index of nanoparticle compositions (Zetasizer Nano ZS); assay type: physicochemical
In short: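 Measured in 1×PBS by Zetasizer Nano ZS.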

[2] = Encapsulation efficiency of RNA (QUANT-IT RIBOGREEN RNA assay); assay type: physicochemical
In short: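 RiboGreen fluorescence (ex ~480, em ~520 nm) measured after 15 min at 37 °C on samples at ~5 μg/mL in TE, pH 7.5, ± 2% Triton X-100 solution. After blank subtraction, free RNA is given as intact-sample signal divided by disrupted-sample signal.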

Luc expression = Luc expression in CD-1 mice (AUC relative to MC3); assay type: in vivo; details: Table 7c
Protocol: FIG. 15 is a graph summarizing luciferase expression levels at 6 h after administration of nanoparticle compositions containing compounds of the disclosure to CD-1 mice at a dose of 0.5 mpk. Total light flux values were acquired via body luminescent imaging (BLI) 6 h after administration. In this Figure, the numbers 1-7 and 10 refer to the compositions containing Compounds 4-10 and MC3 respectively.
(§1) In contrast, hEPO expression in rats induced by administration of a nanoparticle composition including a compound according to one of formulae (I), (Ia1)-(Ia6), (Ib), (II), (IIa), (III), and (IIIa) was substantially […] than that measured for MC3. […] Table 7c and 7d show additional protein expressions and clearance data from compositions with various compounds disclosed herein as compared to with MC3.

[3] = Lipid clearance: % dose remaining in mouse liver 6 h and 24 h after administration of nanoparticle compositions; assay type: in vivo, CD-1 mice; details: Table 7c
Source text: as §1

hEPO mRNA expression = experiment: Expression of hEPO in CD-1 mice; assay type: in vivo; details: Table 7e; hEPO expression, CD-1 mice, 0.5 mpk
Source text: FIG. 12 is a set of graphs illustrating hEPO expression levels in CD-1 mice dosed with compounds of the disclosure, compared to MC3. PBS is used as control. […] In graphs A-C numbers 1-14 refer to compositions containing the following: 1: Compound 73, 2: Compound 80, 3: Compound 70; 4: Compound 81; 5: Compound 69; 6: Compound 82; 7: Compound 83; 8: Compound 62; 9: Compound 84; 10: Compound 85; 11: Compound 86; 12: Compound 87; 13: MC3; 14: PBS.
FIG. 13 is a graph showing hEPO levels (pg/mL) in CD-1 mice up to ˜25 h after administration of a nanoparticle composition containing compounds of the disclosure, compared to a composition containing MC3. Numbers 1-13 refer to compositions containing the following: 1: Compound 73, 2: Compound 80, 3: Compound 70; 4: Compound 81; 5: Compound 69; 6: Compound 82; 7: Compound 83; 8: Compound 62; 9: Compound 84; 10: Compound 85; 11: Compound 86; 12: Compound 87; 13: MC3. […]

[4] = pKa of nanoparticle compositions; assay type: physicochemical; details: Table 20-1
[5] = tested on: luciferase (Luc) mRNA expression; experiment: Expression of Luc induced by sample formulations, whole-body bioluminescence after intravenous administration; assay type: in vivo; details: mice, i.v., 0.5 mg/kg; for Total Flux 3 hours / Total Flux 6 hours / Total Flux 24 hours: Table 20-2
In short: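 Read-out is whole-body bioluminescence at 3, 6 and 24 h after a single intravenous dose of 0.5 mg/kg Luc mRNA in nanoparticle formulations. Groups of n=6 mice; PBS and standard MC3 formulation as references.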

[6] = tested on: modified luciferase expression; experiment: Expression of Luc in different organs (liver, lung, spleen, femur) 6 hours after intravenous administration; assay type: in vivo; details: Table 20-3, mice, i.v., 0.5 mpk
Protocol: The efficacy of the nanoparticle compositions presented in Tables 1, 1a, 17-1, 19-1, 20-1 and 21-1 was further evaluated by measuring the expression of modified luciferase in the liver, lung, spleen, and femur upon administration of a given composition. Formulations were administered intravenously to mice (n=3) at a dosage of 0.5 mpk and bioluminescence measured after 6 hours. The standard MC3 formulation and a PBS control were also tested.

IL-6 = experiment: Cytokine production induced by sample formulations: IL-6; assay type: in vivo; details: mice, i.v., 0.5 mpk, 6 hours; for IL-6: Table 20-4, formula (20-I), in pg/mL (unit assumed)
In short: (§2)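 Cytokine levels were quantified at 6 hours in mice given the nanoparticle compositions i.v. at 0.5 mpk. MC3 standard formulation and PBS served as comparators.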

IP-10 = experiment: Cytokine production induced by sample formulations: IP-10; assay type: in vivo; details: mice, i.v., 0.5 mpk, 6 hours; for IP-10: Table 20-4, formula (20-I), in pg/mL (unit assumed)
In short: as §2

[7] = tested on: modified luciferase (Luc) expression; experiment: Expression upon intramuscular administration of Luc mRNA and H10 mRNA formulations; assay type: in vivo; details: 6 hours after intramuscular administration
Protocol: Sample formulations including both modified luciferase (Luc) mRNA and H10 mRNA were prepared and administered intramuscularly at day 1 and day 21 and the resulting expression and immunogenicity were evaluated simultaneously. Formulations including compounds according to formula (20-I) were prepared and administered at doses of 0.001 and 0.01 mpk (e.g., doses of 0.0005 mpk of a formulation including Luc mRNA and a formulation including H10 mRNA or doses of 0.005 mpk of a formulation including Luc mRNA and a formulation including H10 mRNA). As shown in Table 20-4, the total flux was higher upon administration of the second dose for each composition and at each dose level. Total flux was higher for the higher dose level.

[8] = Table 20-1, rows without footnote mark
[9] = Table 20-1, * formulated with DOPE

## CCCCCCCCCN(CCCCCCCCC)CCN(CCCCCCCCC)CC(=O)N1CCN(C(=O)CN(CCCCCCCCC)CCCCCC(=O)OCCC)CC1 [Compound 54, Propyl 6-((2-(4-(N-(2-(dinonylamino)ethyl)-N-nonylglycyl)piperazin-1-yl)-2-oxoethyl)(nonyl)amino)hexanoate]
[1]; Table 1b
  PDI: 0.23
  Size (nm): 93.0 nm
[2]; Table 1b
  EE (%): 96.9%
Luc expression
  AUC (p/s*h): 1.89E+10 p/s*h
[3]; 6 hr
  % Dose Remaining 6 hr: 5.18%
[3]; 24 hr
  % Dose Remaining 24 hr: 4.77%

## CCCCCCCCCN(CCCCCCCCC)CCN(CCCCCCCCC)CC(=O)N1CCC(CN(CCCCCCCCC)CCCC(=O)OCCCCC)C1 (centres unmarked) [Compound 82, Pentyl 4-(((1-(N-(2-(dinonylamino)ethyl)-N-nonylglycyl)pyrrolidin-3-yl)methyl)(nonyl)amino)butanoate]
[1]; Table 1b
  PDI: 0.24
  Size (nm): 76.1 nm
[2]; Table 1b
  EE (%): 99.23%
hEPO mRNA expression
  AUC (p/s*h) CD-1 mice 0.5 mpk: 1.29E+8 p/s*h

## CCCCCCCCCCCCN(CCO)CCN(CCCCCC(=O)OCCCCC)CCCCCC(=O)OCCCCC [Compound 20-4, Dipentyl 6,6′-((2-(dodecyl(2-hydroxyethyl)amino)ethyl)azanediyl)dihexanoate]
[1]; [8]
  PDI: 0.160
  Size (nm): 82.1 nm
[2]; [8]
  EE (%): 91.3%
[4]; rows without footnote mark
  pKa: 6.86
[5]; 3 hours
  Total Flux 3 hours: 3.01E+06
[5]
  Total Flux 6 hours: 1.75E+06
  Total Flux 24 hours: 6.82E+08
[6]; femur
  Total Flux Femur: 2.09E+04
[6]
  Total Flux Liver: 2.93E+05
  Total Flux Lung: 1.11E+04
  Total Flux Spleen: 4.51E+04
IL-6
  IL-6: 169.3
IP-10
  IP-10: 270.5
[7]
  Total flux (p/s) 0.001 mpk Dose 1: 1.04E+06 p/s
  Total flux (p/s) 0.01 mpk Dose 1: 9.46E+06 p/s

## CCCCCCCCCN(CCCC(=O)OCCCCC)CCC1CCN(C(=O)CN(CCCCCCCCC)CCN(CCCCCCCCC)CCCCCCCCC)CC1 [Compound 83, Pentyl 4-((2-(1-(N-(2-(dinonylamino)ethyl)-N-nonylglycyl)piperidin-4-yl)ethyl)(nonyl)amino)butanoate]
[1]; Table 1b
  PDI: 0.22
  Size (nm): 73.2 nm
[2]; Table 1b
  EE (%): 99.12%
hEPO mRNA expression
  AUC (p/s*h) CD-1 mice 0.5 mpk: 5.21E+7 p/s*h

## CCCCCCCCCN(CCCOC(=O)CCCCC)CCCC1CCN(C(=O)CCN(CCCCCCCCC)CCN(CCCCCCCCC)CCCCCCCCC)CC1 [Compound 87, 3-((3-(1-(3-((2-(Dinonylamino)ethyl)(nonyl)amino)propanoyl)piperidin-4-yl)propyl)(nonyl)amino)propyl Hexanoate]
[1]; Table 1b
  PDI: 0.21
  Size (nm): 80.9 nm
[2]; Table 1b
  EE (%): 98.67%
hEPO mRNA expression
  AUC (p/s*h) CD-1 mice 0.5 mpk: 2.86E+7 p/s*h

## CCCCCCCCCN(CCCOC(=O)CCCCC)CCC(=O)N1CCN(C(=O)CCN(CCCCCCCCC)CCN(CCCCCCCCC)CCCCCCCCC)CC1 [Compound 86, 3-((3-(4-(3-((2-(Dinonylamino)ethyl)(nonyl)amino)propanoyl)piperazin-1-yl)-3-oxopropyl)(nonyl)amino)propyl Hexanoate]
[1]; Table 1b
  PDI: 0.14
  Size (nm): 53.6 nm
[2]; Table 1b
  EE (%): 97.42%
hEPO mRNA expression
  AUC (p/s*h) CD-1 mice 0.5 mpk: 1.75E+7 p/s*h

## CCCCCCCCCN(CCCCCCCCC)CCN(CCO)CCCCCC(=O)OCCCCC [Compound 20-6, Pentyl 6-((2-(dinonylamino)ethyl)(2-hydroxyethyl)amino)hexanoate]
[1]; [8]
  PDI: 0.220
  Size (nm): 82.5 nm
[2]; [8]
  EE (%): 94.7%
[4]; rows without footnote mark
  pKa: 6.73
[5]; 3 hours
  Total Flux 3 hours: 3.39E+10
  total flux after 3 hours, rank within the named table (in words): highest after 3 hours
[5]
  Total Flux 6 hours: 5.44E+06
  Total Flux 24 hours: 5.48E+05
  total flux after 24 hours, rank within the named table (in words): lowest
[6]
  Total Flux Liver: 7.75E+05
  Total Flux Lung: 2.32E+04
  Total Flux Spleen: 2.35E+05
IL-6
  IL-6: 0
  IL-6 induction, rank within the named table (in words): lowest
IP-10
  IP-10: 25.3
  IP-10 induction, rank or comparison with IL-6 (in words): lowest
[7]
  Total flux (p/s) 0.001 mpk Dose 1: 8.57E+05 p/s
  Total flux (p/s) 0.001 mpk Dose 2: 9.79E+05 p/s
  Total flux (p/s) 0.01 mpk Dose 1: 3.41E+06 p/s
  Total flux (p/s) 0.01 mpk Dose 2: 6.04E+06 p/s

## CCCCCCCCCN(CCCCCCCCC)CCCC1CCN(C(=O)CCN(CCCCCCCCC)CCN(CCCCCCCCC)CCCCCCCCC)CC1 [Compound 85, 3-((2-(Dinonylamino)ethyl)(nonyl)amino)-1-(4-(3-(dinonylamino)propyl)piperidin-1-yl)propan-1-one]
[1]; Table 1b
  PDI: 0.24
  Size (nm): 69.9 nm
[2]; Table 1b
  EE (%): 99.18%
hEPO mRNA expression
  AUC (p/s*h) CD-1 mice 0.5 mpk: 1.27E+8 p/s*h

## CCCCCCCCCCCCN(CCCCCCCCCCCC)CCN(CCCCCCCCCCCC)CC(=O)O [Compound 20-1, N-(2-(Didodecylamino)ethyl)-N-dodecylglycine]
[1]; [9]
  PDI: 0.078
  Size (nm): 87.8 nm
[2]; [9]
  EE (%): 90.7%
[4]; * formulated with DOPE
  pKa: 4.48
[5]; 3 hours
  Total Flux 3 hours: 1.44E+06
[5]
  Total Flux 6 hours: 8.30E+05
  Total Flux 24 hours: 4.53E+05
  total flux after 24 hours, rank within the named table (in words): lowest
[6]
  Total Flux Liver: 3.19E+05
  Total Flux Lung: 3.79E+04
  Total Flux Spleen: 1.70E+05
IL-6
  IL-6: 62.4
IP-10
  IP-10: 2065.8
[7]
  Total flux (p/s) 0.001 mpk Dose 1: 3.50E+05 p/s
  Total flux (p/s) 0.001 mpk Dose 2: 1.99E+06 p/s
  Total flux (p/s) 0.01 mpk Dose 1: 3.16E+06 p/s
  Total flux (p/s) 0.01 mpk Dose 2: 1.04E+07 p/s

## CCCCCCCCCN(CCCCCCCCC)CCN(CCCCCCCCC)CC(=O)N1CCC(CN(CCCCCCCCC)CCCCCCCCC)C1 (centres unmarked) [Compound 70, 2-((2-(Dinonylamino)ethyl)(nonyl)amino)-1-(3-((dinonylamino)methyl)pyrrolidin-1-yl)ethan-1-one]
[1]; Table 1b
  PDI: 0.24
  Size (nm): 79.8 nm
[2]; Table 1b
  EE (%): 99.14%
hEPO mRNA expression
  AUC (p/s*h) CD-1 mice 0.5 mpk: 6.34E+7 p/s*h

## CCCCCCCCCN(CCCCCCCCC)CCC1CCCN(C(=O)CN(CCCCCCCCC)CCN(CCCCCCCCC)CCCCCCCCC)C1 (centres unmarked) [Compound 73, 2-((2-(Dinonylamino)ethyl)(nonyl)amino)-1-(3-(2-(dinonylamino)ethyl)piperidin-1-yl)ethan-1-one]
[1]; Table 1b
  PDI: 0.25
  Size (nm): 84.3 nm
[2]; Table 1b
  EE (%): 98.85%
hEPO mRNA expression
  AUC (p/s*h) CD-1 mice 0.5 mpk: 1.41E+8 p/s*h
